According to ChEMBL document CHEMBL4017540, “Synthesis of Potent and Selective Inhibitors of Aldo-Keto Reductase 1B10 and Their Efficacy against Proliferation, Metastasis, and Cisplatin Resistance of Lung Cancer Cells” (J Med Chem, 2017):
Substitutions are numbered along the chain they refer to.

Legend:
[1] = molecular target: T1, Aldo-keto reductase family 1 member B10 (Homo sapiens, UniProt O60218); assay: Inhibition of recombinant human AKR1B10 using pyridine-3-aldehyde as substrate
[2] = molecular target: T2, Aldo-keto reductase family 1 member B1 (Homo sapiens, UniProt P15121); assay: Inhibition of recombinant human AKR1B1 using pyridine-3-aldehyde as substrate
[3] = Competitive inhibition of recombinant human AKR1B10 Lys125Leu mutant in presence of geraniol as substrate by Lineweaver-Burk plot method
[4] = molecular target: T3, Aldo-keto reductase family 1 member C3 (Homo sapiens, UniProt P42330); assay: Inhibition of recombinant human AKR1C3 using S-tetralol as substrate
T3 sequence (P42330 whole entry): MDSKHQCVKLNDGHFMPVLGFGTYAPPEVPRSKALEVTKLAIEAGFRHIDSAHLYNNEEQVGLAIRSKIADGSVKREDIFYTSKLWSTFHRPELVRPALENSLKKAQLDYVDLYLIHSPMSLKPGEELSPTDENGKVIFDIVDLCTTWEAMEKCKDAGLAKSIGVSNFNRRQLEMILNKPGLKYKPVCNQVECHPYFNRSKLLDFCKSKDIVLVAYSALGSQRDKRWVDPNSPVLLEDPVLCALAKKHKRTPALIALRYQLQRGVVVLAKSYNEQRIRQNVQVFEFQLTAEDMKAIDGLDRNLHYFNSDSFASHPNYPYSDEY

[5] = Competitive inhibition of recombinant human AKR1B10 Trp220Tyr mutant in presence of geraniol as substrate by Lineweaver-Burk plot method
[6] = molecular target: T4, Aldo-keto reductase family 1 member C2 (Homo sapiens, UniProt P52895); assay: Inhibition of recombinant human AKR1C2 using S-tetralol as substrate
T4 sequence (P52895 whole entry): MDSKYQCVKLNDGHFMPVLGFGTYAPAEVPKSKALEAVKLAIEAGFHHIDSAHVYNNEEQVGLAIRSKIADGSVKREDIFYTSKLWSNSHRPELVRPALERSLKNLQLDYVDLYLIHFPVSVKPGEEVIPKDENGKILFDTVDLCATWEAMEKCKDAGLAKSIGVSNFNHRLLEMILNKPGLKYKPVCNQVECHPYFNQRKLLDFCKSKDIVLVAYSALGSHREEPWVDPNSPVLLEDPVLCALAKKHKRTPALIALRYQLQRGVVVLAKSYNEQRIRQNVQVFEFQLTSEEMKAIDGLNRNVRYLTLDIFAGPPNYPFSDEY

[7] = Competitive inhibition of recombinant human AKR1B10 Gln303Ser mutant in presence of geraniol as substrate by Lineweaver-Burk plot method
[8] = molecular target: T5, Aldo-keto reductase family 1 member A1 (Homo sapiens, UniProt P14550); assay: Inhibition of recombinant human AKR1A1 using pyridine-3-aldehyde as substrate
T5 sequence (P14550 whole entry): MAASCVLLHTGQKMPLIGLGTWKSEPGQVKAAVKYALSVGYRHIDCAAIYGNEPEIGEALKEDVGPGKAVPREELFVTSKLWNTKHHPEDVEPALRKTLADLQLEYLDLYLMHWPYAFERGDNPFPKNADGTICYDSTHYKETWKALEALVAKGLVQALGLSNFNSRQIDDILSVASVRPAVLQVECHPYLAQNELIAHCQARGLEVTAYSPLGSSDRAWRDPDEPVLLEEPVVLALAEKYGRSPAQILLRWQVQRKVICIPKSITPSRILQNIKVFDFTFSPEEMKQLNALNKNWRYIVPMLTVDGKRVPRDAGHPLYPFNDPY

[9] = molecular target: T6, Aldo-keto reductase family 1 member C1 (Homo sapiens, UniProt Q04828); assay: Inhibition of recombinant human AKR1C1 using S-tetralol as substrate
T6 sequence (Q04828 whole entry): T4 sequence (P52895 whole entry) with V38T, H47R, V54L, S87C, M151V, H170R, L172Q

[10] = molecular target: T1, Aldo-keto reductase family 1 member B10; assay: Competitive inhibition of recombinant human AKR1B10 in presence of geraniol as substrate by Lineweaver-Burk plot method
[11] = molecular target: T7, Carbonyl reductase [NADPH] 1 (Homo sapiens, UniProt P16152); assay: Inhibition of recombinant human CBR1 using isatin as substrate
T7 sequence (P16152 whole entry): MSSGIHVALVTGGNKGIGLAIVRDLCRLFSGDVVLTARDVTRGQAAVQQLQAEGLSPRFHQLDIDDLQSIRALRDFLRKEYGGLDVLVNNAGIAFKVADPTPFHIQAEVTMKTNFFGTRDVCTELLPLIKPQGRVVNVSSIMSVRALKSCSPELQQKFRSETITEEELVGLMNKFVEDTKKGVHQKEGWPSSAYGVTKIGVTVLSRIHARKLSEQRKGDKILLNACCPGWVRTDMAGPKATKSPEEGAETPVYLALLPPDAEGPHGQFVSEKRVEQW

[12] = Competitive inhibition of recombinant human AKR1B10 Val301Leu mutant in presence of geraniol as substrate by Lineweaver-Burk plot method
[13] = molecular target: T8, Aldo-keto reductase family 1 member C4 (Homo sapiens, UniProt P17516); assay: Inhibition of recombinant human AKR1C4 using S-tetralol as substrate
T8 sequence (P17516 whole entry): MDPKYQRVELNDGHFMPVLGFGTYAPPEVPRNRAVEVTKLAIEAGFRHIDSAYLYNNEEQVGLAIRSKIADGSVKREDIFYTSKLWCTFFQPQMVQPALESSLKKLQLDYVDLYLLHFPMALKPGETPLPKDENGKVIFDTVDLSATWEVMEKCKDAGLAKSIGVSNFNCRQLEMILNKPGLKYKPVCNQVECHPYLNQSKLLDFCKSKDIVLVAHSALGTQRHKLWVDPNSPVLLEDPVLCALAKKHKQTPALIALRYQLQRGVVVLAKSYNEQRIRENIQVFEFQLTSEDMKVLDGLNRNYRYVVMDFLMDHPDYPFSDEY

[14] = molecular target: T1, Aldo-keto reductase family 1 member B10; assay: Inhibition of human recombinant AKR1B10 (1 to 316 residues) expressed in Escherichia coli using pyridine-3-aldehyde as substrate
[15] = molecular target: T2, Aldo-keto reductase family 1 member B1; assay: Inhibition of human recombinant AKR1B1 (1 to 316 residues) expressed in Escherichia coli using pyridine-3-aldehyde as substrate
[16] = molecular target: T1, Aldo-keto reductase family 1 member B10; assay: Inhibition of AKR1B10 (unknown origin)
[17] = molecular target: T2, Aldo-keto reductase family 1 member B1; assay: Inhibition of AKR1B1 (unknown origin)
[18] = molecular target: T2, Aldo-keto reductase family 1 member B1; assay: Inhibition of recombinant human AKR1B1 using pyridine-3-aldehyde as substrate by fluorescence assay
[19] = molecular target: T1, Aldo-keto reductase family 1 member B10; assay: Inhibition of recombinant human intestinal N-terminal 6-His-tagged AKR1B10 expressed in Escherichia coli BL21 (DE3) pLysS cells using pyridine-3-aldehyde as substrate by fluorescence assay

T1 sequence (O60218 whole entry): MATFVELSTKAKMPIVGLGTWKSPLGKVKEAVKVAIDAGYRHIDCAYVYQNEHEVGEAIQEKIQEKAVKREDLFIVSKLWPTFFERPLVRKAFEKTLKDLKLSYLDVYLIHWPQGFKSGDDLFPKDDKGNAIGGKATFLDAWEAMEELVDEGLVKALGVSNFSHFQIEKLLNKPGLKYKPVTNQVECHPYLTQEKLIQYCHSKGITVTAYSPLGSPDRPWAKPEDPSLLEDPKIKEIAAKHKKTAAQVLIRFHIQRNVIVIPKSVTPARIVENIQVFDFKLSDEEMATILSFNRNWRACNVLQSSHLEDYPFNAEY

| SMILES | IC50 [1] [nM] | IC50 [2] [nM] | also measured |
| --- | --- | --- | --- |
| O=C(NCCc1ccc(O)cc1)c1cc2ccc(O)cc2oc1=O | 20 | 98 | – |
| O=C(NCCCc1ccc(O)cc1)c1cc2cccc(O)c2oc1=O | 1500 | 9500 | – |
| C[C@@]12CCC[C@H]1[C@@H]1C[C@@H](O)[C@@]3(O)C[C@@H](O)CC[C@]3(CO)[C@H]1CC2 | – | – | IC50 [14]: 830 nM; IC50 [15]: > 100 µM |
| COc1ccc(CCCNC(=O)c2cc3ccc(O)cc3oc2=O)cc1 | 11 | 390 | – |
| O=C(NCCCc1ccc(O)cc1)c1cc2ccccc2oc1=O | 2700 | > 10000 | – |
| O=C(/C=C/c1ccc(O)cc1)CC(=O)/C=C/c1ccc(O)cc1 [BISDEMETHOXYCURCUMIN] | – | – | IC50 [16]: 60 nM; IC50 [17]: 5.1 µM |
| C[C@H](CCC(=O)O)[C@H]1CC[C@H]2[C@@H]3CC[C@@H]4C[C@@H](O)CC[C@]4(C)[C@H]3CC[C@]12C [ISOLITHOCHOLIC ACID] | – | – | IC50 [18]: 6.9 µM; IC50 [19]: 27 nM |

Continued by falling IC50 [1], values first:

| IC50 [1] [nM] | IC50 [2] [nM] | SMILES | also measured |
| --- | --- | --- | --- |
| 11 | 314 | O=C(NCCCCc1ccc(O)cc1)c1cc2ccc(O)cc2oc1=O | – |
| 8.3 | 180 | O=C(NCCCc1cccc(O)c1)c1cc2ccc(O)cc2oc1=O | – |
| 7.8 | 320 | O=C(NCCCc1cc(F)cc(F)c1)c1cc2ccc(O)cc2oc1=O | – |
| 7.5 | 15 | COc1ccc(/N=c2\oc3cc(O)ccc3cc2C(=O)NCCCc2cccc(O)c2)cc1 | – |
| 7 | 200 | Cc1ccc(CCCNC(=O)c2cc3ccc(O)cc3oc2=O)cc1 | – |
| 6.4 | 220 | O=C(NCCCc1ccccc1O)c1cc2ccc(O)cc2oc1=O | – |
| 6 | 340 | O=C(NCCCc1cccc(F)c1)c1cc2ccc(O)cc2oc1=O | – |
| 4.2 | 204 | O=C(NCCCc1ccc(O)cc1)c1cc2ccc(O)cc2oc1=O | Ki [3]: 6.9 nM; IC50 [4]: 1600 nM; Ki [5]: 14 nM; IC50 [6]: 970 nM; Ki [7]: 2.5 nM; IC50 [8]: 1500 nM; IC50 [9]: 0.95 µM; Ki [10]: 2.3 nM; IC50 [11]: 4200 nM; Ki [12]: 9.8 nM; IC50 [13]: 820 nM |
| 3.5 | 277 | O=C(NCCCc1ccc(F)cc1)c1cc2ccc(O)cc2oc1=O | IC50 [4]: 470 nM; IC50 [6]: 610 nM; IC50 [8]: 1700 nM; IC50 [9]: 12 µM; IC50 [11]: 1100 nM; IC50 [13]: 350 nM |
